Laboratory results published in PubChem BioAssay (NCI).
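Method: 48-hour compound exposure of cells in 96-well plates, five concentrations, linear interpolation of endpoints. The concentration for 50% growth inhibition is given as GI50. TGI is the concentration that stops growth completely.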

Legend:
Assay in all cases: growth of human tumour cells (NCI), 48 h
MALME-3M melanoma = test system: MALME-3M melanoma
SN12C renal = test system: SN12C renal
K-562 leukemia = test system: K-562 leukemia
COLO 205 colon = test system: COLO 205 colon
SK-OV-3 ovarian = test system: SK-OV-3 ovarian
EKVX NSCLC = test system: EKVX NSCLC
NCI-H522 lung = test system: NCI-H522 lung
SW-620 colon = test system: SW-620 colon
PC-3 prostate = test system: PC-3 prostate
M19-MEL melanoma = test system: M19-MEL melanoma
T-47D breast = test system: T-47D breast
SF-268 CNS = test system: SF-268 CNS
M14 melanoma = test system: M14 melanoma
DMS 273 small cell lung = test system: DMS 273 small cell lung
DLD-1 colon = test system: DLD-1 colon
A549 NSCLC = test system: A549 NSCLC
RXF 393 renal = test system: RXF 393 renal
LXFL 529 NSCLC = test system: LXFL 529 NSCLC
HCC-2998 colon = test system: HCC-2998 colon
MCF7 breast = test system: MCF7 breast
OVCAR-5 ovarian = test system: OVCAR-5 ovarian
HT29 colon = test system: HT29 colon
U251 CNS = test system: U251 CNS
SNB-75 CNS = test system: SNB-75 CNS
MDA-MB-435 = test system: MDA-MB-435
KM12 colon = test system: KM12 colon
UACC-257 melanoma = test system: UACC-257 melanoma
HOP-18 NSCLC = test system: HOP-18 NSCLC
A498 renal = test system: A498 renal
IGROV1 ovarian = test system: IGROV1 ovarian
LOX IMVI melanoma = test system: LOX IMVI melanoma
SNB-78 CNS = test system: SNB-78 CNS
SF-539 CNS = test system: SF-539 CNS
HL-60(TB) leukemia = test system: HL-60(TB) leukemia
TK-10 renal = test system: TK-10 renal
OVCAR-4 ovarian = test system: OVCAR-4 ovarian
UO-31 renal = test system: UO-31 renal
XF 498 CNS = test system: XF 498 CNS
HCT-116 colon = test system: HCT-116 colon
CCRF-CEM leukemia = test system: CCRF-CEM leukemia
OVCAR-3 ovarian = test system: OVCAR-3 ovarian
SF-295 CNS = test system: SF-295 CNS
ACHN renal = test system: ACHN renal
MOLT-4 leukemia = test system: MOLT-4 leukemia
NCI-H23 lung = test system: NCI-H23 lung
RPMI-8226 leukemia = test system: RPMI-8226 leukemia
UACC-62 melanoma = test system: UACC-62 melanoma
SK-MEL-28 melanoma = test system: SK-MEL-28 melanoma
SK-MEL-5 melanoma = test system: SK-MEL-5 melanoma
786-0 renal = test system: 786-0 renal
KM20L2 colon = test system: KM20L2 colon
SR leukemia = test system: SR leukemia
MDA-MB-231 breast = test system: MDA-MB-231 breast
BT-549 breast = test system: BT-549 breast
DU-145 prostate = test system: DU-145 prostate
HOP-62 NSCLC = test system: HOP-62 NSCLC
NCI-H226 lung = test system: NCI-H226 lung
NCI/ADR-RES ovarian = test system: NCI/ADR-RES ovarian
HS 578T breast = test system: HS 578T breast
HOP-92 NSCLC = test system: HOP-92 NSCLC
OVCAR-8 ovarian = test system: OVCAR-8 ovarian
HCT-15 colon = test system: HCT-15 colon
NCI-H460 lung = test system: NCI-H460 lung
SK-MEL-2 melanoma = test system: SK-MEL-2 melanoma
CAKI-1 renal = test system: CAKI-1 renal
SNB-19 CNS = test system: SNB-19 CNS

Question: For CC(=O)OC12C=CC(=O)N1c1ccccc1C(=O)O2 (stereo unspecified), which TGI (MALME-3M melanoma) is on record?
Answer: > 85.8 µM

Question: What about the TGI (SN12C renal) of the same compound?
Answer: > 100 µM

Question: And the TGI (K-562 leukemia)?
Answer: > 100 µM

Question: What about the TGI (COLO 205 colon) of the same compound?
Answer: > 100 µM

Question: And the TGI (SK-OV-3 ovarian)?
Answer: > 100 µM

Question: What about the TGI (EKVX NSCLC) of the same compound?
Answer: > 100 µM

Question: What about the TGI (NCI-H522 lung) of the same compound?
Answer: > 100 µM

Question: What about the TGI (SW-620 colon) of the same compound?
Answer: > 100 µM

Question: What about the GI50 (PC-3 prostate) of the same compound?
Answer: > 100 µM

Question: And the TGI (PC-3 prostate)?
Answer: > 100 µM

Question: And the TGI (M19-MEL melanoma)?
Answer: > 100 µM

Question: And the GI50 (T-47D breast)?
Answer: > 100 µM

Question: What about the TGI (T-47D breast) of the same compound?
Answer: > 100 µM

Question: And the TGI (SF-268 CNS)?
Answer: > 100 µM

Question: And the TGI (M14 melanoma)?
Answer: > 100 µM

Question: And the TGI (DMS 273 small cell lung)?
Answer: > 100 µM

Question: And the TGI (DLD-1 colon)?
Answer: > 100 µM

Question: What about the TGI (A549 NSCLC) of the same compound?
Answer: > 100 µM

Question: What about the TGI (RXF 393 renal) of the same compound?
Answer: > 100 µM

Question: And the TGI (LXFL 529 NSCLC)?
Answer: > 100 µM

Question: What about the TGI (HCC-2998 colon) of the same compound?
Answer: > 100 µM

Question: And the GI50 (MCF7 breast)?
Answer: > 100 µM

Question: And the TGI (MCF7 breast)?
Answer: > 100 µM

Question: What about the TGI (OVCAR-5 ovarian) of the same compound?
Answer: > 100 µM

Question: And the TGI (HT29 colon)?
Answer: > 100 µM

Question: And the TGI (U251 CNS)?
Answer: > 100 µM

Question: What about the TGI (SNB-75 CNS) of the same compound?
Answer: > 100 µM

Question: What about the GI50 (MDA-MB-435) of the same compound?
Answer: > 100 µM

Question: What about the TGI (MDA-MB-435) of the same compound?
Answer: > 100 µM

Question: What about the TGI (KM12 colon) of the same compound?
Answer: > 100 µM

Question: What about the TGI (UACC-257 melanoma) of the same compound?
Answer: > 100 µM

Question: And the TGI (HOP-18 NSCLC)?
Answer: > 100 µM

Question: What about the GI50 (A498 renal) of the same compound?
Answer: > 100 µM

Question: And the TGI (A498 renal)?
Answer: > 100 µM

Question: What about the TGI (IGROV1 ovarian) of the same compound?
Answer: > 100 µM

Question: What about the TGI (LOX IMVI melanoma) of the same compound?
Answer: > 100 µM

Question: What about the TGI (SNB-78 CNS) of the same compound?
Answer: > 100 µM

Question: And the TGI (SF-539 CNS)?
Answer: > 100 µM

Question: And the TGI (HL-60(TB) leukemia)?
Answer: > 100 µM

Question: What about the TGI (TK-10 renal) of the same compound?
Answer: > 100 µM

Question: What about the TGI (OVCAR-4 ovarian) of the same compound?
Answer: > 100 µM

Question: And the TGI (UO-31 renal)?
Answer: > 100 µM

Question: And the TGI (XF 498 CNS)?
Answer: > 100 µM

Question: What about the TGI (HCT-116 colon) of the same compound?
Answer: > 100 µM

Question: What about the TGI (CCRF-CEM leukemia) of the same compound?
Answer: > 100 µM

Question: What about the TGI (OVCAR-3 ovarian) of the same compound?
Answer: > 100 µM

Question: What about the TGI (SF-295 CNS) of the same compound?
Answer: > 100 µM

Question: What about the TGI (ACHN renal) of the same compound?
Answer: > 100 µM

Question: And the TGI (MOLT-4 leukemia)?
Answer: > 100 µM

Question: And the TGI (NCI-H23 lung)?
Answer: > 100 µM

Question: And the TGI (RPMI-8226 leukemia)?
Answer: > 100 µM

Question: What about the TGI (UACC-62 melanoma) of the same compound?
Answer: > 100 µM

Question: And the TGI (SK-MEL-28 melanoma)?
Answer: > 100 µM

Question: And the TGI (SK-MEL-5 melanoma)?
Answer: > 100 µM

Question: What about the TGI (786-0 renal) of the same compound?
Answer: > 100 µM

Question: What about the TGI (KM20L2 colon) of the same compound?
Answer: > 100 µM

Question: And the TGI (SR leukemia)?
Answer: > 100 µM

Question: What about the GI50 (MDA-MB-231 breast) of the same compound?
Answer: > 100 µM

Question: And the TGI (MDA-MB-231 breast)?
Answer: > 100 µM

Question: And the GI50 (BT-549 breast)?
Answer: > 100 µM

Question: What about the TGI (BT-549 breast) of the same compound?
Answer: > 100 µM

Question: And the GI50 (DU-145 prostate)?
Answer: > 100 µM

Question: And the TGI (DU-145 prostate)?
Answer: > 100 µM

Question: What about the TGI (HOP-62 NSCLC) of the same compound?
Answer: > 100 µM

Question: And the TGI (NCI-H226 lung)?
Answer: > 100 µM

Question: What about the GI50 (NCI/ADR-RES ovarian) of the same compound?
Answer: > 100 µM

Question: What about the TGI (NCI/ADR-RES ovarian) of the same compound?
Answer: > 100 µM

Question: And the GI50 (HS 578T breast)?
Answer: > 100 µM

Question: And the TGI (HS 578T breast)?
Answer: > 100 µM

Question: And the TGI (HOP-92 NSCLC)?
Answer: > 100 µM

Question: What about the TGI (OVCAR-8 ovarian) of the same compound?
Answer: > 100 µM

Question: What about the TGI (HCT-15 colon) of the same compound?
Answer: > 100 µM

Question: What about the TGI (NCI-H460 lung) of the same compound?
Answer: > 100 µM

Question: What about the TGI (SK-MEL-2 melanoma) of the same compound?
Answer: > 100 µM

Question: What about the TGI (CAKI-1 renal) of the same compound?
Answer: > 100 µM

Question: And the TGI (SNB-19 CNS)?
Answer: > 100 µM
